pKi: −log10 of the molar value.
Legend:
hα1A = molecular target: T1, hα1A (Homo sapiens, UniProt P35348); assay: Radioligand binding, hα1A receptor ([3H]prazosin)
T1 construct: expressed in transfected cells; host or cells: Chinese hamster ovary cells (membrane preparation)
T1 sequence (P35348 1-466): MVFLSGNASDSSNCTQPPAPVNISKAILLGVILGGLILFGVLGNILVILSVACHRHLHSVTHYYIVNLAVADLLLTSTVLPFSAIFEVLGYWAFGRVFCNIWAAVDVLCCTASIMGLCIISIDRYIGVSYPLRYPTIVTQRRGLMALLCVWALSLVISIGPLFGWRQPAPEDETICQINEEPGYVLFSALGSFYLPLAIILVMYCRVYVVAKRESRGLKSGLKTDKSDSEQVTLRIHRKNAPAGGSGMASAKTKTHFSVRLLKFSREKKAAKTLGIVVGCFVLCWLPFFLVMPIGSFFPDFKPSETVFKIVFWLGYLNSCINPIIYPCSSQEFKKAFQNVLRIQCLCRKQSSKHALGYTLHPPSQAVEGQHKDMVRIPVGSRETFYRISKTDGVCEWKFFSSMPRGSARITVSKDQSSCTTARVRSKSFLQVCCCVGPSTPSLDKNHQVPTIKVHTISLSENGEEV
Protocol: (§1) Binding affinities at human monoamine receptors and transporters were assessed as previously reported. A detailed description of the methodology is provided in the Supplementary information.
(§2) Data analysis was performed with Prism software (version 10.1.2, GraphPad Software, Boston, MA, USA). The IC50 values from the radioligand binding assays were determined by nonlinear regression, using three independent concentration-response curves fitted to a one-site model. The Cheng-Prusoff equation was used to calculate Kᵢ values for the competing ligands. EC50 values were determined by applying nonlinear regression to concentration-response curves. Bias factors (β) were calculated based on the relative intrinsic activity approach. More detailed information can be found in the Supplementary information. Mean values for total number of HTR, change in body temperature from pre to post session (Δ°C), and total distance traveled (cm) for each drug dose were compared (p < 0.05) via Welch’s ANOVA with Dunnett’s T3 post test, comparing all doses to respective vehicle controls (0 mg/kg). Welch’s ANOVA with Dunnett’s T3 post test was also used to compare drug concentrations, but the data were compared to DOM in this case. Dose–response relationships for HTR and locomotor activities were plotted using bell-shaped curve fits, while temperature change data were plotted using four-parameter non-linear regression curve fits. The ascending phase of the HTR curve for each drug was used to determine ED50 potency values from four parameter non-linear regression fits. For combined DOM and DOAM administration, the plasma, brain tissue, and brain dialysate drug concentrations were compared using paired t-tests (p < 0.05). Ratios were compared using Holm-Sidak’s post hoc test following a repeated-measures one-way ANOVA (F (1.709, 6.835) = 70.80; p < 0.0001).
(§3) 3.1 Assessment of receptor and transporter binding affinities
(§4) Membrane preparations were prepared from cells transfected with the respective target. The membrane preparations were then incubated with selective radioligands at concentrations equal to the corresponding Kd and displacement of the ligand by the drugs was measured. The difference between total binding and nonspecific binding (determined in the presence of selective competitors) was defined as specific binding of the radioligand to the target receptor. The following transfected cell lines were used for the binding assays: HEK 293 cells (h5-HT1A, h5-HT2A, h5-HT2B, h5-HT2C, and hD2 receptors, hDAT, hNET, and hSERT), Chinese hamster ovary cells (hα 1A receptor), and Chinese hamster lung cells (hα 2A receptor).
(§5) 3.1.1 Membrane preparations for receptor and transporter binding
(§6) For producing membrane preparations, transfected cells were harvested with trypsin/EDTA, washed with ice-cold phosphate buffered saline, and then pelleted by centrifugation (210 × g for 5 min at 4 °C). The pellets were frozen and stored at -80 °C until use. Frozen pellets were resuspended in 20 m L (receptor binding) or 400 m L (transporter binding) buffer (20 mM HEPES -NaOH, 10 mM EDTA, pH 7.4), and homogenized at 1,100 × g for 20 s (receptor binding) or 560 × g for 15 s (transporter binding); the homogenates were then centrifuged at 48,000 × g for 30 min at 4 °C. For receptor binding assays, the supernatants were discarded and the pellets were resuspended in 20 mL buffer (20 mM HEPES-NaOH, 0.1 mM EDTA, pH 7.4) and homogenized at 1 ,100 × g for 20 s. Centrifugation and discarding of the supernatant were repeated once, and the final pellet was then resuspended in buffer and homogenized.
(§7) 3.1.2 Serotonin 5-HT1A and 5-HT2A receptor binding
Competitive binding at the h5-HT1A and h5-HT2A receptor was determined using 0.90 nM [ 3H]8-hydroxy-2-(di-n-propylamine)tetralin ([ 3H]8-OH-DPAT; h5-HT1A receptor agonist) and 0.40 nM [3H]ketanserin (h5-HT2 receptor antagonist) as radioligands. The density and affinity of [ 3H]8-OH-DPAT […]

hDAT = molecular target: T2, hDAT (Homo sapiens, UniProt Q01959); assay: Radioligand binding, hDAT ([3H]WIN35,428)
T2 construct: expressed in transfected cells; host or cells: HEK 293 cells (membrane preparation)
T2 sequence (Q01959 whole entry): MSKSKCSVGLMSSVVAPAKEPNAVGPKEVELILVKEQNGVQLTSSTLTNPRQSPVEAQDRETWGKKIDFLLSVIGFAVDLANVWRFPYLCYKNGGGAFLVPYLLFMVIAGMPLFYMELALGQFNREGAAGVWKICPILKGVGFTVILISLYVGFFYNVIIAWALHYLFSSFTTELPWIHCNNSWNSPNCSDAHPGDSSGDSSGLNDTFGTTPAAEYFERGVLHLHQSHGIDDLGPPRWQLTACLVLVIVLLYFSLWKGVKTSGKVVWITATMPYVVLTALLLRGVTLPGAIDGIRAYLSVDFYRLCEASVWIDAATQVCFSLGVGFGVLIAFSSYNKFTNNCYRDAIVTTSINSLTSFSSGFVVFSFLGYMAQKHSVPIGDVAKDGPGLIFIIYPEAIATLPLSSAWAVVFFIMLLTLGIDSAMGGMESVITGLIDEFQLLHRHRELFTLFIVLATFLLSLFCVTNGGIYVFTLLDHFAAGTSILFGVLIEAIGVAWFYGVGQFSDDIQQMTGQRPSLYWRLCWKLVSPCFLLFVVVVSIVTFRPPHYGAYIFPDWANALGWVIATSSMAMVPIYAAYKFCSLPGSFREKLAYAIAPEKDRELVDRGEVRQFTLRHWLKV
Protocol: as §1
as §2, with “The” for “Data analysis was performed with Prism software (version 10.1.2, GraphPad Software, Boston, MA, USA). The”, “0.05).” for “0.05). Ratios were compared using Holm-Sidak’s post hoc test following a repeated-measures one-way ANOVA (F (1.709, 6.835) = 70.80; p < 0.0001).”
as §3, §4, §5, §6, §7
Competitive binding at the h5-HT1A and h5-HT2A receptor was determined using 0.90 nM [ 3H]8-hydroxy-2-(di-n-propylamine)tetralin ([ 3H]8-OH-DPAT; h5-HT1A receptor agonist) and 0.40 nM [3H]ketanserin (h5-HT2 receptor antagonist) as radioligands. […]
binding of the radioligands was defined as difference between total binding (binding buffer alone) and nonspecific binding determined in the presence of 10 μM pindolol (h5-HT1A receptor antagonist) or 10 μM spiperone (h 5-HT2A receptor antagonist).

[1] = hDAT Ki, mean (95% CI), HEK 293 membranes

Row | SMILES | pKi (hα1A) | pKi (hDAT; [1]) | pKi (hDAT; Ki DAT, text value (range DAT and SERT 3.6–4.6))
1 | CCCc1cc(OC)c(CC(C)N)cc1OC.Cl (stereo not shown) [DOPR, 4-propyl-2,5-dimethoxyamphetamine hydrochloride] | 5.16 | < 5.10 | –
2 | CCCCCc1cc(OC)c(CC(C)N)cc1OC (stereo not shown) [DOAM, 4-amyl-2,5-dimethoxyamphetamine] | 5.60 | 5.44 | 5.44
3 | COc1ccc(OC)c(CC(C)N)c1.Cl (stereo not shown) [2,5-DMA, 2,5-Dimethoxyamphetamine hydrochloride] | 5.27 | < 5.10 | –
4 | COc1cc(CC(C)N)c(OC)cc1C (stereo not shown) [DOM, 4-methyl-2,5-dimethoxyamphetamine] | 5.13 | < 5.10 | –
5 | CCCCc1cc(OC)c(CC(C)N)cc1OC (stereo not shown) [DOBU, 4-butyl-2,5-dimethoxyamphetamine] | 5.68 | < 5.10 | –
6 | CCc1cc(OC)c(CC(C)N)cc1OC (stereo not shown) [DOET, 4-ethyl-2,5-dimethoxyamphetamine] | 5.40 | < 5.10 | –

Reference: publication PMC12916490 (Molecular Psychiatry, 2025)
